Where two headings read alike, the source gives them in different places.
Type: in vivo, Japanese patients
Settings: 15 mg QD (n = 3)

## COc1cc2ncnc(Nc3ccc(F)c(Cl)c3)c2cc1NC(=O)/C=C/CN1CCCCC1 [dacomitinib, Dacomitinib]
All
  Alanine aminotransferase increased, number of patients with treatment-related AE: 0
  Aspartate aminotransferase increased, number of patients with treatment-related AE: 0
  Blood bilirubin increased, number of patients with treatment-related AE: 0
  Cheilitis, number of patients with treatment-related AE: 2
  Conjunctivitis, number of patients with treatment-related AE: 0
  Decreased appetite, number of patients with treatment-related AE: 0
  Diarrhea, number of patients with treatment-related AE: 2
  Dry skin, number of patients with treatment-related AE: 2
  ECG QT prolonged, number of patients with treatment-related AE: 2
  Edema, number of patients with treatment-related AE: 0
  Fatigue, number of patients with treatment-related AE: 0
  Hematuria, number of patients with treatment-related AE: 0
  Hypertrichosis, number of patients with treatment-related AE: 0
  Leukopenia, number of patients with treatment-related AE: 0
  Nausea, number of patients with treatment-related AE: 0
  Palmar–plantar erythrodysesthesia, number of patients with treatment-related AE: 1
  Paronychia, number of patients with treatment-related AE: 1
  Proteinuria, number of patients with treatment-related AE: 0
  Rash, number of patients with treatment-related AE: 3
  Skin fissures, number of patients with treatment-related AE: 0
  Stomatitis, number of patients with treatment-related AE: 1
  Weight decreased, number of patients with treatment-related AE: 0
G1
  Alanine aminotransferase increased, number of patients with treatment-related AE: 0
  Aspartate aminotransferase increased, number of patients with treatment-related AE: 0
  Blood bilirubin increased, number of patients with treatment-related AE: 0
  Cheilitis, number of patients with treatment-related AE: 2
  Conjunctivitis, number of patients with treatment-related AE: 0
  Decreased appetite, number of patients with treatment-related AE: 0
  Diarrhea, number of patients with treatment-related AE: 2
  Dry skin, number of patients with treatment-related AE: 1
  ECG QT prolonged, number of patients with treatment-related AE: 1
  Edema, number of patients with treatment-related AE: 0
  Fatigue, number of patients with treatment-related AE: 0
  Hematuria, number of patients with treatment-related AE: 0
  Hypertrichosis, number of patients with treatment-related AE: 0
  Leukopenia, number of patients with treatment-related AE: 0
  Nausea, number of patients with treatment-related AE: 0
  Palmar–plantar erythrodysesthesia, number of patients with treatment-related AE: 1
  Paronychia, number of patients with treatment-related AE: 0
  Proteinuria, number of patients with treatment-related AE: 0
  Rash, number of patients with treatment-related AE: 2
  Skin fissures, number of patients with treatment-related AE: 0
  Stomatitis, number of patients with treatment-related AE: 1
  Weight decreased, number of patients with treatment-related AE: 0
G2
  Alanine aminotransferase increased, number of patients with treatment-related AE: 0
  Aspartate aminotransferase increased, number of patients with treatment-related AE: 0
  Blood bilirubin increased, number of patients with treatment-related AE: 0
  Cheilitis, number of patients with treatment-related AE: 0
  Conjunctivitis, number of patients with treatment-related AE: 0
  Decreased appetite, number of patients with treatment-related AE: 0
  Diarrhea, number of patients with treatment-related AE: 0
  Dry skin, number of patients with treatment-related AE: 1
  ECG QT prolonged, number of patients with treatment-related AE: 1
  Edema, number of patients with treatment-related AE: 0
  Fatigue, number of patients with treatment-related AE: 0
  Hematuria, number of patients with treatment-related AE: 0
  Hypertrichosis, number of patients with treatment-related AE: 0
  Leukopenia, number of patients with treatment-related AE: 0
  Nausea, number of patients with treatment-related AE: 0
  Palmar–plantar erythrodysesthesia, number of patients with treatment-related AE: 0
  Paronychia, number of patients with treatment-related AE: 1
  Proteinuria, number of patients with treatment-related AE: 0
  Rash, number of patients with treatment-related AE: 1
  Skin fissures, number of patients with treatment-related AE: 0
  Stomatitis, number of patients with treatment-related AE: 0
  Weight decreased, number of patients with treatment-related AE: 0
G3
  Alanine aminotransferase increased, number of patients with treatment-related AE: 0
  Aspartate aminotransferase increased, number of patients with treatment-related AE: 0
  Blood bilirubin increased, number of patients with treatment-related AE: 0
  Cheilitis, number of patients with treatment-related AE: 0
  Conjunctivitis, number of patients with treatment-related AE: 0
  Decreased appetite, number of patients with treatment-related AE: 0
  Diarrhea, number of patients with treatment-related AE: 0
  Dry skin, number of patients with treatment-related AE: 0
  ECG QT prolonged, number of patients with treatment-related AE: 0
  Edema, number of patients with treatment-related AE: 0
  Fatigue, number of patients with treatment-related AE: 0
  Hematuria, number of patients with treatment-related AE: 0
  Hypertrichosis, number of patients with treatment-related AE: 0
  Leukopenia, number of patients with treatment-related AE: 0
